Laboratory results as given in US8703769B2, “Use of EGFR inhibitors to prevent or treat obesity” (The University of North Carolina at Chapel Hill, priority 2005, dated 2014).

Experiments:
Format in all cases: in vivo
EGFR [1] = target: T1, EGFR (Mus musculus, UniProt Q01279); test: High fat diet with or without AG1478 for about 1 month, C57BL/6 male mice (Example 2); details: for accumulation of adipose tissue (percent body fat by DEXA): C57BL/6 male mice, HFD + AG1478 (144 ppm in diet) vs HFD alone, FIGS. 9-12
T1 construct: from tissue; host or cells: whole animal: wild-type C57BL/6J male mice
T1 sequence (Q01279 25-1210): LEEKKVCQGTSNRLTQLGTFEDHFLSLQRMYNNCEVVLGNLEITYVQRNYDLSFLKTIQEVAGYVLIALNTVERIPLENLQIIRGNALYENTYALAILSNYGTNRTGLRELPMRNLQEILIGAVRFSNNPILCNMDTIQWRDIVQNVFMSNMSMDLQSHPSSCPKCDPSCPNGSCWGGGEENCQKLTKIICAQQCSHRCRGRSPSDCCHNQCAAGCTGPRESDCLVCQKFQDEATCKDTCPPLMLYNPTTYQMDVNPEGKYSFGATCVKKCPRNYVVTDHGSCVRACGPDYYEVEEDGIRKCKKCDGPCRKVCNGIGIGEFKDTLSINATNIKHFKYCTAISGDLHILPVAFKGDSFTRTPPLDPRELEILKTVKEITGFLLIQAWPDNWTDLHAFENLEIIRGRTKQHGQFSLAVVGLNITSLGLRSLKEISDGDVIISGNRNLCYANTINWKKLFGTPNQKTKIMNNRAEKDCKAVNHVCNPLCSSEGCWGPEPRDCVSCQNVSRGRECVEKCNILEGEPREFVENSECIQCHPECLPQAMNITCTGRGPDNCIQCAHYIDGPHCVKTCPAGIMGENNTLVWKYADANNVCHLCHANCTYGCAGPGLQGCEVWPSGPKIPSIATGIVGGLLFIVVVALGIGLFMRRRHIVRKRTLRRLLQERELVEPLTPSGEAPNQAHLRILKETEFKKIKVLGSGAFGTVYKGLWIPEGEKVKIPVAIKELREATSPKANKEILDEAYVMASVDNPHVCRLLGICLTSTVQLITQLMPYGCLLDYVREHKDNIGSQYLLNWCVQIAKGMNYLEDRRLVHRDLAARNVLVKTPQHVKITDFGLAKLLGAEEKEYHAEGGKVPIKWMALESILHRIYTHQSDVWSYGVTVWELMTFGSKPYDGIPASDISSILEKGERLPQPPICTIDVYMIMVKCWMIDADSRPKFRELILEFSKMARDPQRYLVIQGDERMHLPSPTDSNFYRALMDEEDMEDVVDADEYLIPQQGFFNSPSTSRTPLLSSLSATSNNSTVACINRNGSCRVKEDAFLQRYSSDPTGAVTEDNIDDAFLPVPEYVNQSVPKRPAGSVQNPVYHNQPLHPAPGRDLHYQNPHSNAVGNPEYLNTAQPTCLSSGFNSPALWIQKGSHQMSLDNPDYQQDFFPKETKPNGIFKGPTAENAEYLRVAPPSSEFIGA
Description: (§1) Diets: A base Western Diet (D12079B, Research Diets, Inc., New Brunswick, N.J., U.S.A.) having 41% fat (kcal) was used in all studies, and is designated HFD. The small molecule inhibitor AG1478 (LC Laboratories, Woburn, Mass., U.S.A.) was added to this base diet to a final concentration of […]. This diet is designated HFD+INH.
(§2) In experiments using wild-type C57BL6/J (B6) mice, male mice were housed individually and were started on the diet experiments at 8 weeks of age. In Example 2, mice were maintained on the HFD or HFD+INH for 1 month. In Example 3, mice were maintained on the HFD (n=8) or HFD+INH (n=8) for 6 months. In Example 4, all mice were placed on the HFD for 3 months; after this time, Group 1 (n=4) was placed on HFD+INH, while Group 2 (n=4) was maintained on HFD.
(§3) Clinical chemistry: Non-fasted blood glucose levels were measured at baseline and monthly using the FREESTYLE® blood glucose monitor (Abbott Laboratories, Abbott Park, Ill., U.S.A.) which was calibrated per manufacturer's instruction prior to use. All measurements were taken from 4-5 pm. At sacrifice, blood was collected by retro-orbital bleed and serum was isolated. Serum concentrations of triglycerides and total cholesterol were measured using an automatic blood chemical analyzer (Johnson & Johnson, New Brunswick, N.J., U.S.A.) by the University of North Carolina at Chapel Hill Animal Clinical Chemistry and Gene Expression Laboratories Core.
(§4) Body composition analysis: On the day of analysis, mice were weighed, anaesthetized with 2-3% isofluorane, and body composition was determined with a PIXIMUS II™ Mouse Densitometer (GE Medical Systems, distributed by Faxitron X-Ray Corporation, Wheeling, Ill., U.S.A.) using software versions 1.46 and 2.10. These measurements were taken at baseline and monthly during the diet studies. The Dual-energy X-ray absorptiometry (DEXA) method of determining body composition and body fat has been validated in lean and obese mice (Brommage (2003) J Physiol Endocrinol Metab 285: E454-459).
(§5) Statistical analysis: Results are expressed as mean+/−STD. A two-sided unpaired student's t-test was used for preliminary statistical analysis.
FIGS. 9-12 depict the results of C57BL/6 male mice exposed either to a high fat diet (HFD; […]) or the HFD base diet plus the EGFR small molecule inhibitor AG1478 (144 ppm) for about 1 month. The mice were approximately 6 weeks old when started on the dietary study. Male littermates were housed together, so the data are shown as the mean per cage. There is an n of […] for the mice on the HFD+inhibitor (INH), with two test groups of 6 (HFD+INH1 and HFD+INH2) and an n of 4 for the HFD cage.

EGFR [2] = target: T1, EGFR; test: High fat diet with or without AG1478 for 6 months, B6 male mice (Example 3)
Description: as §1, §2, §3, §4, §5
In order to determine if the short-term effects on weight gain due to the inhibitor action were applicable over a longer time period, the experiments of Example 2 were extended over six months.
Baseline measurements (body weights, blood glucose, and percent body fat) were taken of 2-month-old male C57 BL/6J (B6) mice which were then housed individually and randomly assigned to receive either HFD or HFD+Inhibitor A (AG 1478). Measurements were again assessed at 1, 2 and 6 months of treatment. All mice were sacrificed at month 6. At sacrifice, blood was collected for clinical chemistry. Heart, liver and fat depots were also dissected and weighed. A two-sided unpaired student's t-test was used for preliminary statistical analysis.

EGFR [3] = target: T1, EGFR; test: Already obese B6 male mice on HFD switched to HFD+INH (Example 4); details: n=4 per group
Description: as §1, §2, §3, §4, §5
In order to assess whether EGFR inhibitors can effect weight loss or stasis in an already obese subject, obese mice were administered an EGFR inhibitor and body mass and chemistry measurements made over time while maintaining a HFD. Specifically, baseline measurements were taken of 2 month-old male B6 mice, which were then housed individually and placed on a HFD for 2 months. Body weights, blood glucose, and percent body fat were assessed at this time point, and mice were randomly assigned to two groups. Group 1 (Grp1) was continuously fed the HFD, while Group 2 (Grp2) was switched to the HFD+INH after the initial two months. Measurements were again assessed at 1 and 3 months after the diet switch (experimental month 3 and 5). All mice were sacrificed at month 5. At sacrifice, blood was collected for clinical chemistry and heart, liver and fat depots were dissected and weighed. A two-sided unpaired student's t-test was used for preliminary statistical analysis.

[4] = HFD+inhibitor A vs HFD alone, six months, n=8 per group, FIG. 14
[5] = plasma after 6 months, 7-8 mice per group, HFD+Inhibitor A vs HFD, FIG. 17
[6] = between treatment groups at sacrifice (month 5), FIG. 20B
[7] = between treatment groups, FIG. 21

With COc1cc2ncnc(Nc3cccc(Cl)c3)c2cc1OC [AG1478, 4-(3-Chloroanillino)-6,7-dimethoxyquinazoline] the “accumulation of adipose tissue (percent body fat by DEXA)” value (EGFR [1]; about 1 month) was “reduction in adipose tissue accumulation”, the “accumulation of adipose tissue (percent body fat by DEXA)” value (EGFR [1]; about 1 month, listed as AG 1478) was “successfully inhibited the accumulation of adipose tissue” and the body weight gain (EGFR [1]; HFD+INH vs HFD control mice, one month, FIG. 11) was “gained less body weight”. For the same compound, the “food consumption per mouse per day” value (EGFR [1]; HFD+INH vs HFD, about 1 month, estimated from total food remaining per day, FIG. 10) was “no significant difference”, the “body weight (BW)” value (EGFR [2]; B6 male mice, HFD+inhibitor A vs HFD alone, 6 months, n=8 per group, FIG. 13) was “significantly decreased” and the “percent body fat as assessed by DEXA” value (EGFR [2]; B6 male mice, HFD+inhibitor A vs HFD alone, 6 months, n=8 per group, p<0.001, FIG. 13) was “significantly decreased”. The fat mass (EGFR [2]; [4]) was “decreased”, the lean body mass (EGFR [2]; [4]) was “no change” and the gross heart weight (EGFR [2]; after 6 months, HFD+Inhibitor A vs HFD, FIG. 16) was “no significant differences”. The gross liver weight (EGFR [2]; after 6 months, HFD+Inhibitor A vs HFD, p<0.02, FIG. 16) was “significantly reduced”, the “fat mass in the four major fat depots (intraperitoneal, intrascapular, kidney, perigonadal)” value (EGFR [2]; dissection after 6 months, HFD+Inhibitor A vs HFD, FIG. 15) was “decreased fat mass in all four major fat depots” and the total cholesterol level (EGFR [2]; [5]) was “significantly lower”. For the same compound, the triglyceride level (EGFR [2]; [5]) was “significantly lower”, the “percent increase in BW relative to BW at 2 months on HFD” value (EGFR [3]; Group 2 (HFD+Inhibitor A) vs Group 1 (HFD), after 1 and 3 months on HFD+Inhibitor A, p<0.02, FIG. 18) was “significantly lower” and the “percent increase in BF (H), body fat by DEXA relative to time of diet change” value (EGFR [3]; Group 2 vs Group 1, after 3 months on HFD+Inhibitor A, p<0.02, FIG. 19) was “significantly lower”. For the same compound, the fat depot weights (EGFR [3]; between treatment groups at sacrifice (month 5), FIG. 20A) was “No significant differences”, the heart weight (EGFR [3]; [6]) was “No significant differences” and the liver weight (EGFR [3]; [6]) was “No significant differences”. For the same compound, the blood glucose level (EGFR [3]; [7]) was “no significant differences”, the total cholesterol level (EGFR [3]; [7]) was “no significant differences” and the triglyceride level (EGFR [3]; [7]) was “no significant differences”.
